ChEMBL document CHEMBL3886358, “Quinolyl-containing hydroxamic acid compound and preparation method thereof, and pharmaceutical composition containing this compound and use thereof” (2015)

What was measured:
[1] = target: Histone deacetylase 1 (Homo sapiens, UniProt Q13547); assay: (§1) Inhibition Assay: The inhibitions of activities of HDAC enzymes by the compounds N1'-[3-fluoro-4-[[7-[4-(hydroxyamino)-4-oxobutoxy]-6-methoxy-4-quinolyl]oxy]phenyl]-N1-(4-fluoro phenyl)cyclopropane-1,1-dicarboxamide prepared in Example 9 and N1'-[3-fluoro-4-[[7-[6-(hydroxyamino)-6-oxohexyloxy]-6-methoxy-4-quinolyl]oxy]phenyl]-N1-(4-fluo rophenyl)cyclopropane-1,1-dicarboxamide prepared in Example 13 were measured by Reaction Biology Corporation (Reaction Biology Corp., One Great Valley Parkway, Suite 2, Malvern, PA 19355, USA . http://www.reactionbiology.com/pages/hdac.htm). The HDAC enzymes tested include the following 11 HDAC isoforms: HDAC1, HDAC2, HDAC3, HDAC4, HDAC5, HDAC6, HDAC7, HDAC8, HDAC9, HDAC10 and HDAC11.Specific steps were as follows: The compound of the present invention was dissolved in dimethyl sulfoxide (DMSO) to make a stock solution of 10 mM. The stock solution was diluted in 4-fold series starting from 10 mM to prepare 10 different dosages.
[2] = target: Histone deacetylase 2 (Homo sapiens, UniProt Q92769); assay: as §1
[3] = target: Histone deacetylase 3 (Homo sapiens, UniProt O15379); assay: as §1
[4] = target: Histone deacetylase 4 (Homo sapiens, UniProt P56524); assay: as §1
[5] = target: Histone deacetylase 5 (Homo sapiens, UniProt Q9UQL6); assay: as §1
[6] = target: T1, Histone deacetylase 8 (Homo sapiens, UniProt Q9BY41); assay: as §1
T1 sequence (Q9BY41 whole entry): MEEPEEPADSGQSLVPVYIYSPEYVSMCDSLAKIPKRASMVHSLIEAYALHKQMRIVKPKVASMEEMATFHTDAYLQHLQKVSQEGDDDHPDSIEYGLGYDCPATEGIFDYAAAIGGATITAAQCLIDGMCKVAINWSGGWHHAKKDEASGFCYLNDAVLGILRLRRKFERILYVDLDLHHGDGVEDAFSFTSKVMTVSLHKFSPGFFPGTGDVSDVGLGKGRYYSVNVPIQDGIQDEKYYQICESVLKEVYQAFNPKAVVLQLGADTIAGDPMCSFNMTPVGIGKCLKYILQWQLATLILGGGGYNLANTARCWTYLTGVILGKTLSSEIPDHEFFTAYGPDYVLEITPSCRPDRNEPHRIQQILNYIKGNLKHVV

[7] = target: Histone deacetylase 9 (Homo sapiens, UniProt Q9UKV0); assay: as §1
[8] = target: T2, Polyamine deacetylase HDAC10 (Homo sapiens, UniProt Q969S8); assay: as §1
T2 sequence (Q969S8 whole entry): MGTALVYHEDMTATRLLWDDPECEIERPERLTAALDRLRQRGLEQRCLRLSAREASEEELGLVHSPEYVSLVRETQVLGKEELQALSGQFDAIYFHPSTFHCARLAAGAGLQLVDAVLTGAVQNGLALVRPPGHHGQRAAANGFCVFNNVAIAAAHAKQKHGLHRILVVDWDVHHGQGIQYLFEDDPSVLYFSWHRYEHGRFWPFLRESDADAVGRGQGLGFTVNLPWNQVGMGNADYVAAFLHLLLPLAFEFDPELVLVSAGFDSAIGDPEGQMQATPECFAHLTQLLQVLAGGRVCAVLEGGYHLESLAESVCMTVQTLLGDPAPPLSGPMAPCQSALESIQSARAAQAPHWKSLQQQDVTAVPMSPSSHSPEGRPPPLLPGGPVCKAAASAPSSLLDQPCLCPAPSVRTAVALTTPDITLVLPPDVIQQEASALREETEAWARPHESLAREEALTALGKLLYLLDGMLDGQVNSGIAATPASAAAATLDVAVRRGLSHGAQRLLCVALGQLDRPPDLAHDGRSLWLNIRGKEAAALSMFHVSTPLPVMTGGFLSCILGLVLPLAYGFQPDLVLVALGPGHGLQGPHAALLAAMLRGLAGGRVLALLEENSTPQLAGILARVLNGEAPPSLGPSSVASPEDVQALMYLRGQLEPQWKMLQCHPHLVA

[9] = target: T3, Protein deacetylase HDAC6 (Homo sapiens, UniProt Q9UBN7); assay: as §1
T3 sequence (Q9UBN7 whole entry): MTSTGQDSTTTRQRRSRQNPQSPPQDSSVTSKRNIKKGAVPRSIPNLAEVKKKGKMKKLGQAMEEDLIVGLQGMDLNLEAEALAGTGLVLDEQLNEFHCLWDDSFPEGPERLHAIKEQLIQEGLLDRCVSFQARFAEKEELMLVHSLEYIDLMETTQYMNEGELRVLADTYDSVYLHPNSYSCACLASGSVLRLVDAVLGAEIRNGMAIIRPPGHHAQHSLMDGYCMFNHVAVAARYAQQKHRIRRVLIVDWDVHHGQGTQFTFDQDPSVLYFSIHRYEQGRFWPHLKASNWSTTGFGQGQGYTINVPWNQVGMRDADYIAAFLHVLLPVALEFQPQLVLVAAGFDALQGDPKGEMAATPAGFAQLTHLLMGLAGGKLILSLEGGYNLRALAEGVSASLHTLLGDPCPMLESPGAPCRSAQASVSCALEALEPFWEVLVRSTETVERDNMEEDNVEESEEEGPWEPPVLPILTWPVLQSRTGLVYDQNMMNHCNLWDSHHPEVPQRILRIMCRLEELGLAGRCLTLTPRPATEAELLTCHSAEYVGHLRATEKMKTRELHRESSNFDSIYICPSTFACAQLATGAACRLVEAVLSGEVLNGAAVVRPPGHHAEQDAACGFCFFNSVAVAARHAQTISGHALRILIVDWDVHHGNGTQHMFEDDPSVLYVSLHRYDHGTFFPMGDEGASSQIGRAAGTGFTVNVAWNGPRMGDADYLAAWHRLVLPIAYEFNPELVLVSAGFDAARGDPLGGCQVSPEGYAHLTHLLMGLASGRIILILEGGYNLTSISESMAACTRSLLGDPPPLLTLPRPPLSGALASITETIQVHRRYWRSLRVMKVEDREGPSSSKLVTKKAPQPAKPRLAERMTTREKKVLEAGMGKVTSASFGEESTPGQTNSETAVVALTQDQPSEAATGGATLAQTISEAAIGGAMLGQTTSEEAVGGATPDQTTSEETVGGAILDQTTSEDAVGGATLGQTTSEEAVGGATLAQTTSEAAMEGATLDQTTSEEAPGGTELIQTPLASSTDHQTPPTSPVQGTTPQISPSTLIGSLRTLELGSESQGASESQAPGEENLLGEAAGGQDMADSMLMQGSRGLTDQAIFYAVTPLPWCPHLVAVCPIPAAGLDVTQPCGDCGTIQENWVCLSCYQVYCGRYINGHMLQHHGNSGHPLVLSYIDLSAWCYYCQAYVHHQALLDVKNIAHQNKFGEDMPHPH

Chain of Histone deacetylase 9 (Q9UKV0 whole entry): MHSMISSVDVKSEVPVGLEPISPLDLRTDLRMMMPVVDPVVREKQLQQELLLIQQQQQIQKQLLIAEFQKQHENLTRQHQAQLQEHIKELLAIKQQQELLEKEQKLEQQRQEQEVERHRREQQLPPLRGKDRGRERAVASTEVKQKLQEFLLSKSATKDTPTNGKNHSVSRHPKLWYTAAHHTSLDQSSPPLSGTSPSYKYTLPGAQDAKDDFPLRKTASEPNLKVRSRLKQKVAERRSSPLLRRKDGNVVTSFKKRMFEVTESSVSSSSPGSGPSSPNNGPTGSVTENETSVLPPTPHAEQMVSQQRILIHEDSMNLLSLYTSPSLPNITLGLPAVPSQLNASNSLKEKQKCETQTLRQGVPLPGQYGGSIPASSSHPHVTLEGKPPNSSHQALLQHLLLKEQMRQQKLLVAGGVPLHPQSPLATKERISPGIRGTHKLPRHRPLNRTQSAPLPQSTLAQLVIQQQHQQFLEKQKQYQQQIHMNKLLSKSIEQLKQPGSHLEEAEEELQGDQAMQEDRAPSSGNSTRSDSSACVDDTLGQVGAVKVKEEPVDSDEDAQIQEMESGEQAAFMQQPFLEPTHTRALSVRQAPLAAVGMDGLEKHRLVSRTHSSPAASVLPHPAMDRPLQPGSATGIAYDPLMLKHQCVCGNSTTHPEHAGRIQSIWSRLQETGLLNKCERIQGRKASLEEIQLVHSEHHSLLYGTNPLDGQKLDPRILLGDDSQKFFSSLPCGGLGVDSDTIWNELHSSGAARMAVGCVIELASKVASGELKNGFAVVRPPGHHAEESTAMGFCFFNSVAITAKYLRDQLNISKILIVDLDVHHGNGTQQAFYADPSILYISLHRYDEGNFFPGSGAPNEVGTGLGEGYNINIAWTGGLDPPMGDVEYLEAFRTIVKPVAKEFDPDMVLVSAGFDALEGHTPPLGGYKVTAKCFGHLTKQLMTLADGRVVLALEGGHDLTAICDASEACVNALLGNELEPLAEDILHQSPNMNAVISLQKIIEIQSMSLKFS
Chain of Histone deacetylase 5 (Q9UQL6 whole entry): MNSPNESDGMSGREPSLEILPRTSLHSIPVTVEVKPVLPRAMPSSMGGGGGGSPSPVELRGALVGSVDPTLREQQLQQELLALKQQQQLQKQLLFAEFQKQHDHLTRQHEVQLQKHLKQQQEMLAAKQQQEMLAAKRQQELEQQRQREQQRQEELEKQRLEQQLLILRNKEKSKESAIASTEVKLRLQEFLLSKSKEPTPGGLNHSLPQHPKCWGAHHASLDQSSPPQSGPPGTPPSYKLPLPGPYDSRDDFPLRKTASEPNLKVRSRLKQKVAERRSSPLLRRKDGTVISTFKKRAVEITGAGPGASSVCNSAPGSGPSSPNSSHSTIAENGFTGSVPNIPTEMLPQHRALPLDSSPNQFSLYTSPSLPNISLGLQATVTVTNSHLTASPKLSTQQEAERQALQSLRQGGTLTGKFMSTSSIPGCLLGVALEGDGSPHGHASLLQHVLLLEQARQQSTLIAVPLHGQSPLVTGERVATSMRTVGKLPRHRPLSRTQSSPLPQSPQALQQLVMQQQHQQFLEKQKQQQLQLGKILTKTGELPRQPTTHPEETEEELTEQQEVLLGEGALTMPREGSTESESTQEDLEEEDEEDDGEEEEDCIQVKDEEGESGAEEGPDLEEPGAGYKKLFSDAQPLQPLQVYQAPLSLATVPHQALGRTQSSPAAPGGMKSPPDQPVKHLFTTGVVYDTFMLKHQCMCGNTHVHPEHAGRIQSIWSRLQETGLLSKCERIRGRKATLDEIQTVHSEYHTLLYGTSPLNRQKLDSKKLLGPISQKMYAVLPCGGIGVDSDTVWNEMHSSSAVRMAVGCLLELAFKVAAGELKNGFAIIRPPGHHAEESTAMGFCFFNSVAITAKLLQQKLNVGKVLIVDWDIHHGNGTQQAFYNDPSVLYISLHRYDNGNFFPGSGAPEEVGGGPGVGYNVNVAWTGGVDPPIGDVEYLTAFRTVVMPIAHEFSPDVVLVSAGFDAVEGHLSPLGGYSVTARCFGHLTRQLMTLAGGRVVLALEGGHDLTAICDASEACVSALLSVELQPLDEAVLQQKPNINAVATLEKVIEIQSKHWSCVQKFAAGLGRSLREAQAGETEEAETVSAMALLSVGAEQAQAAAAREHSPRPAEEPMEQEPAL
Chain of Histone deacetylase 4 (P56524 whole entry): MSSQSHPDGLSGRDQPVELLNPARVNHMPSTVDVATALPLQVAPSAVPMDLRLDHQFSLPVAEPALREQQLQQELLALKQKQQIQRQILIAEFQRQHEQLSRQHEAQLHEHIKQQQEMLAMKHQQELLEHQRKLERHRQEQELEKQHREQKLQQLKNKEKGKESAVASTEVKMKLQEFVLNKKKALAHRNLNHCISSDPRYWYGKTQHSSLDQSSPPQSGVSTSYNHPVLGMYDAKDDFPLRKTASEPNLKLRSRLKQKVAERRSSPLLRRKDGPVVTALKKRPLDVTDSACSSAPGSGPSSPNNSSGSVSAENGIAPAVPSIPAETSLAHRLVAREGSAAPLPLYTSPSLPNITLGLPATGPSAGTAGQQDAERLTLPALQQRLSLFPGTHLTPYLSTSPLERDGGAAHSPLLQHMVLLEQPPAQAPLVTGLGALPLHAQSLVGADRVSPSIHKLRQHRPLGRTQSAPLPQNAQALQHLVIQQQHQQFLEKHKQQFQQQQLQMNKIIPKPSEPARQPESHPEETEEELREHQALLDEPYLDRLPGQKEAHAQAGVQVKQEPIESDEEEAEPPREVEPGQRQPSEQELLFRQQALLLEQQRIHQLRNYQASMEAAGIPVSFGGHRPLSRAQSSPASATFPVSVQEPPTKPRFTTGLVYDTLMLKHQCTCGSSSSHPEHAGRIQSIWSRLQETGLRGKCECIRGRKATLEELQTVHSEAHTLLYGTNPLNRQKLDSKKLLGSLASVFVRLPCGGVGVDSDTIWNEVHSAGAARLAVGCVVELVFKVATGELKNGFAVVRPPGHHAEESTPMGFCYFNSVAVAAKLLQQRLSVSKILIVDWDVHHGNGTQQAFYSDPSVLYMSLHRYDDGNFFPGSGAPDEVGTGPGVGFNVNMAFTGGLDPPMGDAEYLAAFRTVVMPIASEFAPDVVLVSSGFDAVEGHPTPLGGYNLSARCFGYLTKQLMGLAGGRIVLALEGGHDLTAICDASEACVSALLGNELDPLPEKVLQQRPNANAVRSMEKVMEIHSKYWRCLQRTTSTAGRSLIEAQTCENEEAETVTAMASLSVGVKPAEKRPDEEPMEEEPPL
Chain of Histone deacetylase 1 (Q13547 whole entry, canonical isoform): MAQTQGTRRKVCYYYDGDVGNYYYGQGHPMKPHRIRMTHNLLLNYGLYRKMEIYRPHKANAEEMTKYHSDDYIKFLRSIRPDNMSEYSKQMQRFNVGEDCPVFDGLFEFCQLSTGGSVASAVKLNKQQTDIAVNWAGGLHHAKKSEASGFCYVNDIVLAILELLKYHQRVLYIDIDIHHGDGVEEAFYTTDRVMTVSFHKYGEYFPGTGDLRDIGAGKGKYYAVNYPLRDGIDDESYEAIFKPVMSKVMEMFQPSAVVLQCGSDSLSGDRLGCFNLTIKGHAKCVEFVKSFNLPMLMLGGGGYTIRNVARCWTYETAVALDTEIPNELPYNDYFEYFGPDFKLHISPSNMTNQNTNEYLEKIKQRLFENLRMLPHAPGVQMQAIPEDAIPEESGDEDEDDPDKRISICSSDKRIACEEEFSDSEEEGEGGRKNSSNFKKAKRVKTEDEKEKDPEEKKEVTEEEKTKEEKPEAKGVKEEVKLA
Chain of Histone deacetylase 3 (O15379 whole entry): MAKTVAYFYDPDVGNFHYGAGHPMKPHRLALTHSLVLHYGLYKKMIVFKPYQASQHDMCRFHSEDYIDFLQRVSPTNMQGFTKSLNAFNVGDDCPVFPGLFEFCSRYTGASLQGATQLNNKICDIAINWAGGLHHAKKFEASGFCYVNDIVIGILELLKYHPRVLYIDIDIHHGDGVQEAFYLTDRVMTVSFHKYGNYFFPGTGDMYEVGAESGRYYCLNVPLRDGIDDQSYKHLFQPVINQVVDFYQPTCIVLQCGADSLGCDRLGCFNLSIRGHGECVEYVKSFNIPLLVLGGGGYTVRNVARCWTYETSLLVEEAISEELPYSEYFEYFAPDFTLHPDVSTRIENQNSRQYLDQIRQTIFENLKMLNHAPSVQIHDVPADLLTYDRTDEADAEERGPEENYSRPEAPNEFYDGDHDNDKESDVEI
Chain of Histone deacetylase 2 (Q92769 whole entry): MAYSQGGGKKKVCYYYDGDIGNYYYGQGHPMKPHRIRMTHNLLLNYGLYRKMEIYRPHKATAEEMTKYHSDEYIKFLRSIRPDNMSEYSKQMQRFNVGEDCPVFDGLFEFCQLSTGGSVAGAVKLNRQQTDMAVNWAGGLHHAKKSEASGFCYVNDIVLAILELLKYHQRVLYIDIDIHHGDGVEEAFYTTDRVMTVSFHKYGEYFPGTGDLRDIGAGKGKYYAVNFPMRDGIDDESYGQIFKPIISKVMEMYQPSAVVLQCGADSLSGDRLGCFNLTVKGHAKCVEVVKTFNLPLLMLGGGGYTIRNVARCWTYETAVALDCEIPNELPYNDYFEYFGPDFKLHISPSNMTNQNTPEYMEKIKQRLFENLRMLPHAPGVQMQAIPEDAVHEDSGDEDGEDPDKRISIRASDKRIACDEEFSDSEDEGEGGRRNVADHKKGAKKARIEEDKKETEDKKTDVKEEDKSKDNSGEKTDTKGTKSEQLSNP

Row | SMILES | IC50 [1] [µM] | IC50 [2] [µM] | IC50 [3] [µM] | IC50 [4] [µM] | IC50 [5] [µM] | IC50 [6] [µM] | IC50 [7] [µM] | IC50 [8] [µM] | IC50 [9] [µM]
1 | COc1cc2c(Oc3ccc(NC(=O)C4(C(=O)Nc5ccc(F)cc5)CC4)cc3F)ccnc2cc1OCCCCCC(=O)NO | > 10 | 2.74 | > 10 | > 10 | > 10 | 1.63 | > 10 | 11.9 | 0.0083
2 | COc1cc2c(Oc3ccc(NC(=O)C4(C(=O)Nc5ccc(F)cc5)CC4)cc3F)ccnc2cc1OCCCC(=O)NO | > 10 | 0.431 | > 10 | > 10 | > 10 | 8.94 | > 10 | > 10 | 0.242
